In patent US20250289829A1, “DEUBIQUITINASE INHIBITOR AND USE THEREOF” (CHASER THERAPEUTICS, INC., priority 2022, published 2025):

Assays:
USP25 = molecular target: T1, USP25 (Homo sapiens, UniProt Q9UHP3); test: USP25 activity by the Ub-Rh110 method; assay type: biochemical; details: purified USP25 15 nM, Ub-Rh110 125 nM; read-out: Inhibitory activity (IC50) USP25
T1 construct: purchased R&D Systems
T1 sequence (Q9UHP3 1-1055): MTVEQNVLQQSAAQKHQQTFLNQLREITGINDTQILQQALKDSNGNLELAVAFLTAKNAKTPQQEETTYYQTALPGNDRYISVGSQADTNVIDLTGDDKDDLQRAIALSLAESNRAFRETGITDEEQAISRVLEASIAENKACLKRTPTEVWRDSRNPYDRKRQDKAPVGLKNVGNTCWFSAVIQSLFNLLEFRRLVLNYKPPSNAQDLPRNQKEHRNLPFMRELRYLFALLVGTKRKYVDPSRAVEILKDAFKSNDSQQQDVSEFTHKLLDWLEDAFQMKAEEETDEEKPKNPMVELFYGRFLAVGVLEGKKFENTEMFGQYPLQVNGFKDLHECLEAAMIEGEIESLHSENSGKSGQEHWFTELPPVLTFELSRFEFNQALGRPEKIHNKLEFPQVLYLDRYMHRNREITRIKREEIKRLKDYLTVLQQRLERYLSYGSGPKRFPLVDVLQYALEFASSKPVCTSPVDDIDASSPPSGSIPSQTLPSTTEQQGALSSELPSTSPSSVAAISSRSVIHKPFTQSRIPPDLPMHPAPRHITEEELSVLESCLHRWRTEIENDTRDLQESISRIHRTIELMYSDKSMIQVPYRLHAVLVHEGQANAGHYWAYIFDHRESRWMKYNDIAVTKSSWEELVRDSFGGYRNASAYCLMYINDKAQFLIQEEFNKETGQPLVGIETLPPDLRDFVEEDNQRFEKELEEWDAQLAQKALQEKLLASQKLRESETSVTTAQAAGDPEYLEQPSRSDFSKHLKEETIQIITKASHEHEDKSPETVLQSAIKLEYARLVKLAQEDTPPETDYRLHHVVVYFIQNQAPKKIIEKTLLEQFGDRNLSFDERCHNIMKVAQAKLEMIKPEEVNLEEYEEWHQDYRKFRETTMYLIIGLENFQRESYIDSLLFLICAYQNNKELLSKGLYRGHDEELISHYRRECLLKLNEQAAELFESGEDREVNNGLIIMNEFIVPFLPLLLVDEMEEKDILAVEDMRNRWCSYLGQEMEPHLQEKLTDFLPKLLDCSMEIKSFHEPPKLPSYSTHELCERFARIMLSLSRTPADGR
Protocol: USP25 activity was determined by the Ub-Rh110 method.
Purified USP25 was purchased from R&D Systems. The experimental procedures were the same as those in Example 2. The final concentration of USP25 was 15 nM, the final concentration of the substrate Ub-Rh110 was 125 nM, and the final volume of the whole reaction system was 20 μL.
(§1) With reference to Example 2 and Example 3, USP28 and USP25 inhibitor activity tests were performed on representative example compounds of the present disclosure and the following comparative compound structures.

USP28 = molecular target: T2, USP28 (Homo sapiens, UniProt Q96RU2); test: USP28 activity by the ubiquitin-rhodamine 110 (Ub-Rh110) method; assay type: biochemical; details: purified USP28 4 nM, Ub-Rh110 125 nM, 30 min preincubation; read-out: Inhibitory activity (IC50) USP28
T2 construct: purchased R&D Systems China Co., Ltd. (R&D Systems)
T2 sequence (Q96RU2 1-1077): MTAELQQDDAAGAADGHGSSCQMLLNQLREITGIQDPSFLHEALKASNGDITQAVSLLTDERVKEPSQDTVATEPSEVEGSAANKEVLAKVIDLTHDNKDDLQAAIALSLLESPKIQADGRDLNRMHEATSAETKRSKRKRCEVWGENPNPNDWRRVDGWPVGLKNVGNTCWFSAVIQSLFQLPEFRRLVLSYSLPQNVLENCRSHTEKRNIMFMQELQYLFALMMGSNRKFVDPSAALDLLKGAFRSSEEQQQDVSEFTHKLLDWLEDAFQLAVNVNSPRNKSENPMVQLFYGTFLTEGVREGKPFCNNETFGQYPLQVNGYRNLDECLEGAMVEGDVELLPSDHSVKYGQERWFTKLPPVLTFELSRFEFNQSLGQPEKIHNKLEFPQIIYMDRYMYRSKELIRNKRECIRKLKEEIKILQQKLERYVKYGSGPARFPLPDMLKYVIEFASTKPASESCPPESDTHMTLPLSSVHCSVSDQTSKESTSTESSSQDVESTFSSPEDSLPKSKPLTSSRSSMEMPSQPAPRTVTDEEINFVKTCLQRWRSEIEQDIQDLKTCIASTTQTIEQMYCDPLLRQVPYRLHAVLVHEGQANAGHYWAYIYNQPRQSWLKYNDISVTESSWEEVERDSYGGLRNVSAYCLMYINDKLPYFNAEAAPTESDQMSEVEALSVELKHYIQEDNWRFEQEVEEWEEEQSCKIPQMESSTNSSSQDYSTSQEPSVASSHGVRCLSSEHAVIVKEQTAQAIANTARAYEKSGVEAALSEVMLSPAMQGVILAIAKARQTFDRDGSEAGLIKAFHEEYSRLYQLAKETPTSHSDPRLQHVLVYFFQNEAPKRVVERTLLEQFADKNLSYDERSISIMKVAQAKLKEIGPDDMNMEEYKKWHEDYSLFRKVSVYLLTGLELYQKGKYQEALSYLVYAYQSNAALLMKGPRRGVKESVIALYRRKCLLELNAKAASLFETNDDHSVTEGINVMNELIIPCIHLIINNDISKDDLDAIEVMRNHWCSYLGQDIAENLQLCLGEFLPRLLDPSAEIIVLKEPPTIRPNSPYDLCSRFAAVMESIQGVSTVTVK
Protocol: USP28 activity was determined by the ubiquitin-rhodamine 110 (Ub-Rh110) method.
Purified USP28 and a substrate Ub-Rh110 used for determining deubiquitinase activity were purchased from R&D Systems China Co., Ltd. (R&D Systems). First, test compounds were each dissolved in DMSO to prepare a 10 mM stock solution, and then the stock solution was diluted to the desired concentration (with a DMSO content of 0.5%) with a buffer solution [containing 20 mM Tris-HCl (pH 8.0), 2 mM CaCl2), 3 mM BME, 0.01% Prionex, and 0.01% Triton X-100]. The prepared test compound solutions at different concentrations were mixed uniformly with USP28 (final concentration: 4 nM) in a 96-well plate, and the mixture was incubated at r. t. for 30 min before the addition of Ub-Rh110 to 125 nM. The final volume of the whole reaction system was 20 μL. The released fluorescence (excitation wavelength: 485 nm, emission wavelength: 535 nm) was detected immediately on a microplate reader after the addition of the substrate. A blank control group (DMSO instead of test compound) and a substrate group (no USP28 added) were set simultaneously. The inhibitory rates of the test compounds for USP28 were calculated according to the following formula:
Inhibition %=(1−[(fluorescence valuetest compound−fluorescence valuesubstrate)/(fluorescence valuecontrol−fluorescence valuesubstrate])×100%
According to the inhibitory rates of the test compounds for USP28 under different concentrations, IC50 values were calculated.
as §1

Row | SMILES | IC50 (USP25) [nM] | IC50 (USP28) [nM]
1 | CNc1c(C(=O)NCCc2ccc(N3CC4CCC(C3)N4)cc2)cnc2c1ccn2C [Compound I-12] | 50 to 500 | < 50
2 | CCn1ccc2c(NC)c(C(=O)NC[C@H](C)c3ccc(N4CC5CCC(C4)N5)cc3)cnc21 [Compound I-21] | 500 to 1000 | 50 to 500
3 | CCn1ccc2c(NC)c(C(=O)NCCc3ccc(N4CC5CCC(C4)N5)cc3)cnc21 [Compound I-02, N-4-(3,8-diazabicyclo[3.2.1]octan-3-yl)phenethyl-1-ethyl-4-methylamino-1H-pyrrolo[2,3-b]pyridine-5-carboxamide] | < 50 | < 50
4 | CCn1ccc2c(NC)c(C(=O)NCCc3ccc(N4CC5CCC(C4)N5)cc3F)cnc21 [Compound I-05] | 50 to 500 | < 50
5 | CCn1ccc2c(NC)c(C(=O)NC[C@@H](C)c3ccc(N4CC5CCC(C4)N5)cc3)cnc21 [Compound I-22] | 500 to 1000 | 50 to 500
6 | CCn1ccc2c(NC)c(C(=O)NCCc3ccc(N4CCNCC4)cc3)nnc21 [Compound I-28] | < 50 | < 50
7 | CCCn1ccc2c(NC)c(C(=O)NCCc3ccc(N4CC5CCC(C4)N5)cc3)cnc21 [Compound I-13] | < 50 | < 50
8 | CCn1ccc2c(Cl)c(C(=O)NCCc3ccc(N4CC5CCC(C4)N5)cc3)cnc21 [Compound I-01, N-4-(3,8-diazabicyclo[3.2.1]octan-3-yl)phenethyl-4-chloro-1-ethyl-1H-pyrrolo[2,3-b]pyridine-5-carboxamide] | 1000 to 10000 | 1000 to 10000
9 | CCn1ccc2c(OC)c(C(=O)NCCc3ccc(N4CC5CCC(C4)N5)cc3)cnc21 [Compound I-32] | 1000 to 10000 | 50 to 500
10 | CCn1ccc2c(NC)c(C(=O)NCCc3ccc(N4CCNCC4)cc3)cnc21 [Compound I-07] | < 50 | < 50
11 | CCn1ccc2c(NC)c(C(=O)N[C@H]3CCc4cc(N5CC6CCC(C5)N6)ccc4C3)cnc21 [Compound I-25] | 50 to 500 | < 50
12 | CCn1ccc2c(NC)c(C(=O)NCCc3ccc(N4CC5CCC(C4)N5)cc3F)nnc21 [Compound I-29] | 50 to 500 | < 50
13 | CCn1ccc2c(NC)c(C(=O)NCCc3ccc(C4CCNCC4)cc3)cnc21 [Compound I-20] | 50 to 500 | < 50
14 | CCn1ccc2c(NC)c(C(=O)NCCc3ccc(N4CC5CCC(C4)N5)cc3)nnc21 [Compound I-27] | < 50 | < 50
15 | CNc1c(C(=O)NCCc2ccc(N3CCNCC3)cc2)cnc2c1ccn2CC(F)(F)F [Compound I-16] | < 50 | < 50
16 | CCn1ccc2c(NC)c(C(=O)NCCc3ccc(C4C5CCC4CNC5)cc3)cnc21 (stereo not shown) [Compound I-18] | 50 to 500 | –
17 | CCn1ccc2c(NC)c(C(=O)NCC(C)(C)c3ccc(N4CC5CCC(C4)N5)cc3F)cnc21 [Compound I-06] | 500 to 1000 | 50 to 500

Row | SMILES | IC50 (USP25) [nM] | IC50 (USP28) [nM]
18 | CCCCn1ccc2c(NC)c(C(=O)NCCc3ccc(N4CC5CCC(C4)N5)cc3)cnc21 [Compound I-14] | < 50 | < 50
19 | CCn1ccc2c(NC)c(C(=O)NCCc3ccc(Br)cc3)cnc21 [Compound I-10] | > 10000 | –
20 | CCCNc1c(C(=O)NCCc2ccc(N3CC4CCC(C3)N4)cc2)cnc2c1ccn2CC [Compound I-04] | > 10000 | 1000 to 10000
21 | COc1c(C(=O)NCCc2ccc(N3CC4CCC(C3)N4)cc2)cnc2c1ccn2C [Compound I-31] | > 10000 | 1000 to 10000
22 | CCn1ccc2c(NC)c(C(=O)N[C@H]3COc4cc(N5CC6CCC(C5)N6)ccc4C3)cnc21 [Compound I-23] | < 50 | < 50
23 | CNc1c(C(=O)NCCc2ccc(N3CC4CCC(C3)N4)cc2)cnc2[nH]ccc12 [Compound I-11] | 500 to 1000 | 50 to 500
24 | CCn1ccc2c(NC)c(C(=O)N[C@@H]3CCc4cc(N5CC6CCC(C5)N6)ccc4C3)cnc21 [Compound I-26] | 500 to 1000 | 50 to 500
25 | CCn1cc(Cl)c2c(NC)c(C(=O)NCCc3ccc(N4CC5CCC(C4)N5)cc3)cnc21 [Compound I-30] | 50 to 500 | < 50
26 | CCn1ccc2c(NC)c(C(=O)NCCc3c[nH]c4ccccc34)cnc21 [Compound I-08] | 50 to 500 | < 50
27 | CCn1ccc2c(NC)c(C(=O)NCCc3ccc(N4C5CCC4CNC5)cc3)cnc21 [Compound I-19] | 50 to 500 | < 50
28 | CCn1ccc2c(NC)c(C(=O)N[C@@H]3COc4cc(N5CC6CCC(C5)N6)ccc4C3)cnc21 [Compound I-24] | 500 to 1000 | 50 to 500
29 | CCNc1c(C(=O)NCCc2ccc(N3CC4CCC(C3)N4)cc2)cnc2c1ccn2CC [Compound I-03] | 500 to 1000 | 500 to 1000
30 | CCn1ccc2c(NC)c(C(=O)NCCc3ccc(C4CC5CCC(C4)N5)cc3)cnc21 (stereo not shown) [Compound I-17] | 50 to 500 | < 50
31 | CCn1ccc2c(OC)c(C(=O)NCCc3ccc(N4CCNCC4)cc3)cnc21 [Compound I-33] | 1000 to 10000 | 50 to 500
32 | CCn1ccc2c(NC)c(C(=O)NCCc3ccc(OC)c(OC)c3)cnc21 [Compound I-09] | 50 to 500 | 50 to 500
33 | CNc1c(C(=O)NCCc2ccc(N3CC4CCC(C3)N4)cc2)cnc2c1ccn2CC(F)(F)F [Compound I-15] | < 50 | < 50
